Measured values published in PubChem BioAssay AID1963864 (Molecular Pharmacology Branch, DTP, NCI, 2024).

Test system: KRAS PDC multicell spheroid viability
Test: Anticancer human tumor 521955-158-R6-J3-PDC patient-derived pancreatic carcinoma cell line growth inhibition [KRAS2]
Details: for IC50: curve of first compound; for viability, T/C: stronger effect = lower value
From the text: Multicellular complex tumor spheroid response to RAS pathway inhibitors in combination with a targeted agents in patient-derived cell lines with oncogenic KRAS variants from multiple cancer types
A high-throughput screen of multi-cell type tumor spheroids was designed to identify active combinations of targeted small molecules and KRAS pathway inhibitors. Complex spheroids include a stromal component modeled by human endothelial cells (HUVEC) and fibroblasts modeled by human mesenchymal stem cells (MSCs). The concentration ranges selected for each drug and investigational agent were based upon clinically achievable concentrations if the clinical Cmax of the agent was known.
Compounds. The drugs and investigational agents: BI-3406 (NSC825286), BAY-293 (NSC824723), batoprotafib (TNO155; NSC825523), sotorasib (AMG 510; NSC818433), MRTX1257 (NSC819558), elimusertib (BAY 1895344; NSC800525), molibresib (GSK525762; NSC774829), temuterkib (LY3214996; NSC803410), venetoclax (NSC766270), alisertib (NSC759677), olaparib (NSC753686), talazoparib (NSC767125), erdafitinib (NSC781556), ipatasertib (NSC767898), cabozantinib (NSC761068), nintedanib (NSC756659), abemaciclib (NSC768073), docetaxel (NSC628503), trametinib (NSC758246), and sapanisertib (NSC764658) were obtained from the National Cancer Institute (NCI) Developmental Therapeutics Program Chemical Repository. The FDA-approved anticancer drug set is available from the Developmental Therapeutics Program. […] The stock solutions were prepared in dimethyl sulfoxide (DMSO, Sigma-Aldrich, St. Louis, MO, cat. D2650) at 800-fold the tested concentration and stored at -70 degrees C prior to their use. All drugs and investigational agents were tested over a range starting from a high concentration at or near the clinical Cmax and decreasing in half-log increments. If the clinical Cmax for an agent had not been determined, the highest concentration tested was 10 microM.
Cell Culture. All cells were maintained in an incubator at 37 degrees C and 5% CO2 with 95% humidity. The PDC lines were cultured according to standard operating procedures established by the NCI PDMR (https://pdmr.cancer.gov/sops/default.htm). Briefly, all PDCs were thawed and cultured in Matrigel-coated flasks prepared with a working solution of 1X Ham's F-12 nutrient mix, without supplementation (Invitrogen, Waltham, MA, cat. 11765054), 100 U/mL penicillin-streptomycin (Invitrogen, cat. 15140122), and 2.5% Matrigel (Corning Inc., Corning, NY, cat. 354248) for the first three passages. All PDCs were cultured in complete DMEM/F-12 media containing advanced DMEM/F-12 (Invitrogen, cat. 12634028), 4.9% defined fetal bovine serum, heat inactivated (HyClone Laboratories Inc., Logan, UT, cat. SH30070.03HI), 389 ng/mL hydrocortisone (Sigma-Aldrich, cat. H4001), 9.7 ng/mL human EGF recombinant protein (Invitrogen, cat. PHG0313), 23.4 microg/mL adenine (Sigma-Aldrich, cat. A2786), 97.3 U/mL penicillin-streptomycin (Invitrogen, cat. 15140122), 1.9 mM L-glutamine (Invitrogen, cat. 25030081), and 9.7 microM Y-27632 dihydrochloride (Tocris Bioscience, Bristol, United Kingdom, cat. 1254). The PDCs were cultured in complete DMEM/F12 media without 9.7 microM Y-27632 dihydrochloride for at least two passages prior to the screen. The established cell line HOP-62 was cultured in RPMI 1640 medium, HEPES (Invitrogen, cat. 22400105) with 10% defined fetal bovine serum (HyClone Laboratories Inc., cat. SH30070.03) and 2 mM L-glutamine (Invitrogen, cat. 25030081). The pooled donor HUVEC were cultured in endothelial cell growth medium 2 (PromoCell, Heidelberg, Germany, cat. C-22011) and the hMSC were cultured in mesenchymal stem cell growth medium 2 (PromoCell, cat. C-28009). For all experiments, HUVEC and hMSC were used at passages </=5, while the malignant cell lines were used at passages </=15. […]
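Further: drug exposure lasted seven days.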
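Wherever viability, T/C is given: 100% = DMSO vehicle wells and lower means fewer viable cells.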

CC1(C)CCC(CN2CCN(c3ccc(C(=O)NS(=O)(=O)c4ccc(NCC5CCOCC5)c([N+](=O)[O-])c4)c(Oc4cnc5[nH]ccc5c4)c3)CC2)=C(c2ccc(Cl)cc2)C1 + C=CC(=O)N1CCN(c2nc(=O)n(-c3c(C)ccnc3C(C)C)c3nc(-c4c(O)cccc4F)c(F)cc23)C(C)C1
IC50 (second compound 0.1 µM): 5.94 µM | IC50 (second compound 0.316 µM): 7.34 µM | IC50 (second compound 1 µM): 4.83 µM | IC50 (second compound 3.16 µM): 6.49 µM | IC50 (second compound 10 µM): 2.96 µM | viability, T/C (second compound 0.1 µM, first compound 0.0316 µM): 89.3% | viability, T/C (second compound 0.1 µM, first compound 0.1 µM): 98.8% | viability, T/C (second compound 0.1 µM, first compound 0.316 µM): 97.1% | viability, T/C (second compound 0.1 µM, first compound 1 µM): 93.2% | viability, T/C (second compound 0.1 µM, first compound 3.16 µM): 72.2% | viability, T/C (second compound 0.1 µM, first compound 10 µM): 31.6% | viability, T/C (second compound 0.316 µM, first compound 0.0316 µM): 113% | viability, T/C (second compound 0.316 µM, first compound 0.1 µM): 112% | viability, T/C (second compound 0.316 µM, first compound 0.316 µM): 101% | viability, T/C (second compound 0.316 µM, first compound 1 µM): 102% | viability, T/C (second compound 0.316 µM, first compound 3.16 µM): 77.5% | viability, T/C (second compound 0.316 µM, first compound 10 µM): 39.5% | viability, T/C (second compound 1 µM, first compound 0.0316 µM): 111% | viability, T/C (second compound 1 µM, first compound 0.1 µM): 104% | viability, T/C (second compound 1 µM, first compound 0.316 µM): 106% | viability, T/C (second compound 1 µM, first compound 1 µM): 95.8% | viability, T/C (second compound 1 µM, first compound 3.16 µM): 65.4% | viability, T/C (second compound 1 µM, first compound 10 µM): 23.4% | viability, T/C (second compound 3.16 µM, first compound 0.0316 µM): 91.9% | viability, T/C (second compound 3.16 µM, first compound 0.1 µM): 93.5% | viability, T/C (second compound 3.16 µM, first compound 0.316 µM): 95.2% | viability, T/C (second compound 3.16 µM, first compound 1 µM): 92.1% | viability, T/C (second compound 3.16 µM, first compound 3.16 µM): 67.2% | viability, T/C (second compound 3.16 µM, first compound 10 µM): 39.6% | viability, T/C (second compound 10 µM, first compound 0.0316 µM): 89.2% | viability, T/C (second compound 10 µM, first compound 0.1 µM): 104% | viability, T/C (second compound 10 µM, first compound 0.316 µM): 88.7% | viability, T/C (second compound 10 µM, first compound 1 µM): 73.5% | viability, T/C (second compound 10 µM, first compound 3.16 µM): 49.8% | viability, T/C (second compound 10 µM, first compound 10 µM): 25.7%
